Measurements: US20170291875A1, “QUINOLONES AS INHIBITORS OF CLASS IV BROMODOMAIN PROTEINS” (UCL BUSINESS PLC, priority 2014, published 2017)

How the values were obtained:
[1] = target: T1, BRD9 (Homo sapiens, UniProt Q9H8M2); experiment: BROMOscan bromodomain competitive binding assay (DiscoveRx), BRD9; conditions: BROMOscan platform, n = 2
T1 construct: purchased DiscoveRx (BROMOscan platform); host or cells: E. coli host derived from BL21 (T7 phage)
T1 sequence (Q9H8M2 136-240 limits assumed): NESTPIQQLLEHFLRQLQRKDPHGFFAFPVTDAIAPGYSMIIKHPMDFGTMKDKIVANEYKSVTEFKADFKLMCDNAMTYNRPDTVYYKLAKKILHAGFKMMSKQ
Experimental: (§1) Compounds were tested using the commercially available BROMOscan™ Platform (DiscoveRx): http://www.discoverx.com/technologies-platforms/competitive-binding-technology/bromoscan-technology-platform/bromoscan-assay-process.
(§2) Bromodomain assays. T7 phage strains displaying bromodomains were grown in parallel in 24-well blocks in an E. coli host derived from the BL21 strain. E. coli were grown to log-phase and infected with T7 phage from a frozen stock (multiplicity of infection=0.4) and incubated with shaking at 32° C. until lysis (90-150 minutes). The lysates were centrifuged (5,000×g) and filtered (0.2 μm) to remove cell debris. […] The liganded beads were blocked with excess biotin and washed with blocking buffer (SeaBlock (Pierce), 1% BSA, 0.05% Tween 20, 1 mM DTT) to remove unbound ligand and to reduce non-specific phage binding. […] Test compounds were prepared as 1000× stocks in 100% DMSO and subsequently diluted 1:10 in monoethylene glycol (MEG) to create stocks at 100× the screening concentration (resulting stock solution is 10% DMSO/90% MEG). The compounds were then diluted directly into the assays such that the final concentration of DMSO and MEG were 0.1% and 0.9%, respectively. All reactions were performed in polystyrene 96-well plates in a final volume of 0.135 ml. […] The bromodomain concentration in the eluates was measured by qPCR.
(§3) An 11-point 3-fold serial dilution of each test compound was prepared in 100% DMSO at 1000× final test concentration. This serial is then diluted to 100× in ethylene glycol and subsequently diluted to 1× in the assay (final DMSO concentration=0.1%, Ethylene glycol concentration=0.9%). Most Kds were determined using a compound top concentration=10,000 nM.
(§4) Binding constants (Kds) were calculated with a standard dose-response curve using the Hill equation: […]
(§5) The Hill Slope was set to −1. Curves were fitted using a non-linear least square fit with the Levenberg-Marquardt algorithm.
(§6) BROMOscan™ uses the same assay technology as KINOMEscan™. For a more detailed description of this assay technology, see Fabian et al.12

[2] = target: T2, BRD7 (Homo sapiens, UniProt Q9NPI1); experiment: BROMOscan bromodomain competitive binding assay (DiscoveRx), BRD7; conditions: BROMOscan platform, n = 2
T2 construct: purchased DiscoveRx (BROMOscan platform); host or cells: E. coli host derived from BL21 (T7 phage)
T2 sequence (Q9NPI1 131-235 limits assumed): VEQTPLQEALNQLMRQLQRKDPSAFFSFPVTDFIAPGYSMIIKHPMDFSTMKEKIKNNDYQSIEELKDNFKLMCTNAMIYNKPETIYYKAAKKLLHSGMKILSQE
Experimental: as §1
Bromodomain assays. T7 phage strains displaying bromodomains were grown in parallel in 24-well blocks in an E. coli host derived from the BL21 strain. E. coli were grown to log-phase and infected with T7 phage from a frozen stock (multiplicity of infection=0.4) and incubated with shaking at 32° C. until lysis (90-150 minutes). The lysates were centrifuged (5,000×g) and filtered (0.2 μm) to remove cell debris. […] The liganded beads were blocked with excess biotin and washed with blocking buffer (SeaBlock (Pierce), 1% BSA, 0.05% Tween 20, 1 mM DTT) to remove unbound ligand and to reduce non-specific phage binding. […] The bromodomain concentration in the eluates was measured by qPCR.
An 11-point 3-fold serial dilution of each test compound was prepared in 100% DMSO at 1000× final test concentration. […] Most Kds were determined using a compound top concentration=10,000 nM.
as §4

[3] = target: T3, BRD1 (Homo sapiens, UniProt O95696); experiment: BROMOscan bromodomain competitive binding assay (DiscoveRx), BRD1; conditions: BROMOscan platform, n = 2
T3 construct: purchased DiscoveRx (BROMOscan platform); host or cells: E. coli host derived from BL21 (T7 phage)
T3 sequence (O95696 562-666 limits assumed): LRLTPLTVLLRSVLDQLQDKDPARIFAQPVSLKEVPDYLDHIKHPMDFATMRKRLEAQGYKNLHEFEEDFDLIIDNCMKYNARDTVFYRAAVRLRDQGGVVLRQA
Experimental: as §1, §2, §3, §4, §5, §6

[4] = target: T4, BRPF3 (Homo sapiens, UniProt Q9ULD4); experiment: BROMOscan bromodomain competitive binding assay (DiscoveRx), BRPF3; conditions: BROMOscan platform, n = 2
T4 construct: purchased DiscoveRx (BROMOscan platform); host or cells: E. coli host derived from BL21 (T7 phage)
T4 sequence (Q9ULD4 589-693 limits assumed): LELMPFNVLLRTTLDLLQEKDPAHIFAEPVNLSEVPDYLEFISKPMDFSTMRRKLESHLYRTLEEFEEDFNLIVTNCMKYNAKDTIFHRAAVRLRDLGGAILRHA
Experimental: as §1, §2, §3, §4, §5, §6

[5] = target: T5, BRPF1B (Homo sapiens, UniProt P55201); experiment: BROMOscan bromodomain competitive binding assay (DiscoveRx), BRPF1B; conditions: BROMOscan platform, n = 2 unless cell says n = 4
T5 construct: purchased DiscoveRx (BROMOscan platform); host or cells: E. coli host derived from BL21 (T7 phage)
T5 sequence (P55201 628-732 limits assumed): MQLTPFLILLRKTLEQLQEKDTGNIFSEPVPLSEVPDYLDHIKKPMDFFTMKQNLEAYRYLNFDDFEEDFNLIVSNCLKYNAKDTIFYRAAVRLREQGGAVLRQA
Experimental: as §1, §2, §3, §4, §5, §6

Kd [1]	Kd [2]	Kd [3]	Kd [4]	Kd [5]	SMILES
890 nM	21000 nM	1800 nM	9300 nM	60 nM	COc1cc2c(cc1NS(=O)(=O)c1ccc(C#N)cc1)c(C)cc(=O)n2C [Compound 33, 4-cyano-N-(7-methoxy-1,4-dimethyl-2-oxo-1,2-dihydroquinolin-6-yl)benzenesulfonamide]
170 nM	–	80 nM	190 nM	12 nM	COc1cc2c(cc1NS(=O)(=O)c1ccc(C#N)cc1OC)cc(C)c(=O)n2C [Compound 27, 4-cyano-2-methoxy-N-(7-methoxy-1,3-dimethyl-2-oxo-1,2-dihydroquinolin-6-yl)benzenesulfonamide]
310 nM	82 nM	48 nM	260 nM	7.9 nM	Cc1cc2cc(NS(=O)(=O)c3ccc(C#N)cc3)ccc2n(C)c1=O [Compound 19, 4-cyano-N-(1,3-dimethyl-2-oxo-1,2-dihydroquinolin-6-yl)benzenesulfonamide]
